Test results from US6930103B2, “Use of vasopeptidase inhibitors in the treatment of metabolic diseases, nephropathy and advanced glycation end-product associated diseases” (Aventis Pharma Deutschland GmbH, priority 2002, dated 2005).

Tests used:
[1] = system: ZDF rats; test: Dot blot analysis of kidney AGE subtypes (CML, CEL, pentosidine) in ZDF rats; assay type: in vivo, rat
Experimental: Kidney AGE values were determined by Dot blot analysis (Stracke et al., Exp. Clin. Endocrinol. Diabets 2002, 109, 330-336) and Reversed-phase high performance liquid chromatography or RP-HPLC (Drusch et al., Food Chem. 1999, 65, 547-553).
Kidney-samples for the dot blot analysis were obtained from 17-week-old male ZDF rats, control rats and ZDF rats treated for seven weeks with 30 mg/kg/d of compound (II-B) and 35 mg/kg/d of compound (III-B). Three animals of each group were sacrificed, the kidneys removed and immediately frozen in liquid nitrogen. Grinding of the kidneys was performed in liquid nitrogen using a freezer mill (Freezer 6750, C3 Analysetechnik GmbH). Kidney sample (10 mg) was dissolved in 1 ml phosphate buffered saline (PBS containing 0.5 g/l Tween 20, 0.5 mM PMSF, […]). The solution was treated two times for five seconds with an ultrasonic cell disrupter (45% power, Bandolin Sonoplus HD 2070), centrifuged for 20 minutes at 4000 rpm and the supernatant was used for dot blot analysis. The nitrocellulose membrane was placed in the dot blot apparatus and washed twice with Tris Buffered Saline (TBS), 100 μl TBS/well. For each sample, 10 μg protein (protein concentration of the samples were determined with the DC Protein Assay, Bio Rad) was diluted in 100 μl TBS and loaded on to the nitrocellulose membrane (Amersham). The membrane was incubated over night in TBS with Tween 20 (TBST; 20 mM Tris, 137 mM NaCl, 0.05% v/v Tween 20) with 5% non-fat dry milk at 4° C. and incubated for 1 hour at room temperature using the following antibody concentration: anti-CML 011 (Biologo) 0.25 μg/ml, anti-CEL (Biologo) 0.25 μg/ml and anti-pentosidine 012 (Biologo) 0.25 μg/ml. After extensive washing in TBST with 5% non-fat dry milk, membranes were exposed to […] anti-mouse IgG antibodies (Dianova) for one hour at room temperature. Membranes were washed again and exposed to the enhanced chemofluorescence detection system (Amersham) according to manufacturer's instructions. Relative fluorescence was determined with the Fluor-Imager 595 (Molecular Dynamics) and quantified using the Image-Quant software. Results were expressed in relative fluorescence (rf) times 10^5 (rf*10^5).

[2] = system: endothelial cells; test: NO and superoxide release from endothelial cells in rabbits fed an atherogenic diet; assay type: in vivo, White New Zealand rabbits; conditions: varied diet rabbits; mean ± SEM
Description: It was shown in the atherogenic rabbit model (White New Zealand rabbits were fed with 0.25% cholesterol plus 3% coconut oil) that even a short 6 week period of an atherogenic diet leads to sustained endothelial dysfunction, even though the animals received a normal diet for 3 months thereafter.
The endothelium-dependent relaxation of isolated aortic rings of rabbits as well as the release of nitric oxide and superoxide from endothelial cells serve as measures of endothelial dysfunction.
• Groups: • Standard: 18 weeks normal diet • Atherogenic: 18 weeks atherogenic diet (3% Coconut oil+0.25% Cholesterol) • Varied diet (Var.): 6 weeks atherogenic diet+12 weeks normal diet • Varied Diet+ramipril: 6 weeks atherogenic diet+12 weeks normal diet+ramipril • Varied diet+compound (II-B): 6 weeks atherogenic diet+12 weeks normal diet+cpd. (II-B)
NO and O2^− are markers for endothelial function: increased relaxation and increased NO levels are beneficial, while increased O2^− formation inhibits the beneficial effects of NO.

[3] = 17-week-old ZDF rats treated for seven weeks, dot blot

CC(=O)S[C@H](C(=O)N[C@H]1Cc2ccccc2[C@H]2CCC[C@@H](C(=O)O)N2C1=O)C(C)C [cpd. (II-B)]
AGE-subtype CEL in the kidneys (anti-CEL), mean [1, 3]: 50.24 rf * 10^5 | AGE-subtype CML in the kidneys (anti-CML 011), mean [1, 3]: 32.62 rf * 10^5 | AGE-subtype pentosidine in the kidneys (anti-pentosidine 012), mean [1, 3]: 44.99 rf * 10^5 | Kidney AGE (Nε-(carboxymethyl)lysine or CML) values ([1]; diabetic rats, summary in words): normalizes | AGE values for subtype CEL compared to untreated ZDF rats ([1]; kidney, dot blot, in words): significantly less | AGE values for subtype CML compared to untreated ZDF rats ([1]; kidney, dot blot, in words): significantly less | AGE values for subtype pentosidine compared to untreated ZDF rats ([1]; kidney, dot blot, in words): significantly less | NO [2]: 329.19 ± 30.10 nM | O2^− (superoxide) [2]: 30.18 ± 6.00 nM
